Earlier results on 1 substance are cited in article PMC8177746 (ACS applied materials & interfaces, 2020).

Usually MIC stands for the least concentration at which growth counts as inhibited.

The series relates to Staphylococcus aureus. As to conditions: ref 14 (Lai et al.).

As for ILGPVLGLVSDTLDDVLGIL-NH2 [MH5], the MIC was 80 µM.
